The supplement of paper PMC9663587

Legend:
[1] = compound: CN(C)C(=O)c1cc2cnc(Nc3ccc(N4CCNCC4)cn3)nc2n1C1CCCC1 [LEE011/Ribociclib]; assay: GR value, 72 h; higher = faster growth (1 = untreated, <0 = killing);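 note: breast cancer and non-malignant breast epithelial lines, nine half-log doses, viable cells counted by Hoechst and LIVE/DEAD dye imaging versus time-zero plates and DMSO controls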
[2] = compound: CC(=O)c1c(C)c2cnc(Nc3ccc(N4CCN(CCOCCOCCOCCNC(=O)COc5cccc6c5C(=O)N(C5CCC(=O)NC5=O)C6=O)CC4)cn3)nc2n(C2CCCC2)c1=O [BSJ-03-123]; assay: as above
[3] = compound: T1, CN1CC[C@H](c2c(O)cc(O)c3c(=O)cc(-c4ccccc4Cl)oc23)[C@H](O)C1 [Flavopiridol]; assay: as above
[4] = compound: CN(C)C/C=C/C(=O)Nc1ccc(C(=O)N2CCC[C@@H](Nc3ncc(Cl)c(-c4c[nH]c5ccccc45)n3)C2)cc1 [THZ531]; assay: as above
[5] = compound: CCc1cnn2c(NCc3ccc[n+]([O-])c3)cc(N3CCCC[C@H]3CCO)nc12; assay: as above
[6] = compound: CN(C)CC[C@H](CSc1ccccc1)Nc1ccc(S(=O)(=O)NC(=O)c2ccc(N3CCN(Cc4ccccc4-c4ccc(Cl)cc4)CC3)cc2)cc1[N+](=O)[O-] [ABT-737]
[7] = compound: CN1CCN(CCOc2cc(OC3CCOCC3)c3c(Nc4c(Cl)ccc5c4OCO5)ncnc3c2)CC1 [Saracatinib/AZD0530]
[8] = compound: T1, Flavopiridol
[9] = compound: Cc1nc(-c2cn3c(n2)-c2ccc(-c4cnn(C(C)(C)C(N)=O)c4)cc2OCC3)n(C(C)C)n1 [Taselisib/GDC0032]
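Throughout, for GR50, 72 h: breast cancer and non-malignant breast epithelial cell lines, Deep Dye Drop or Dye Drop imaging, nine half-log doses, GR normalized to time-zero plates and DMSO-only controls.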

## HCC1569
[1]; 0.01 µM
  GR value: 1.07 GR
[1]; 0.03162 µM
  GR value: 0.978 GR
[1]; 0.1 µM
  GR value: 1.09 GR
[1]; 0.3162 µM
  GR value: 0.913 GR
[1]; 1 µM
  GR value: 1.26 GR
[1]; 3.162 µM
  GR value: 1.32 GR
[1]; 10 µM
  GR value: 0.86 GR
[2]; 0.001 µM
  GR value: 1.01 GR
[2]; 0.003162 µM
  GR value: 0.944 GR
[2]; 0.01 µM
  GR value: 1.04 GR
[2]; 0.03162 µM
  GR value: 0.922 GR
[2]; 0.1 µM
  GR value: 1.08 GR
[2]; 0.3162 µM
  GR value: 0.841 GR
[2]; 1 µM
  GR value: 0.5 GR
[2]; 3.162 µM
  GR value: 0.693 GR
[2]; 10 µM
  GR value: -0.102 GR
[3]; 0.0001 µM
  GR value: 1.24 GR
[3]; 0.0003162 µM
  GR value: 1.13 GR
[3]; 0.001 µM
  GR value: 0.828 GR
[3]; 0.003162 µM
  GR value: 1.19 GR
[3]; 0.01 µM
  GR value: 1.02 GR
[3]; 0.03162 µM
  GR value: 0.846 GR
[3]; 0.1 µM
  GR value: 0.422 GR
[3]; 0.3162 µM
  GR value: 0.0517 GR
[3]; 1 µM
  GR value: -0.284 GR
[4]; 0.0001 µM
  GR value: 1.2 GR
[4]; 0.0003162 µM
  GR value: 1.02 GR
[4]; 0.001 µM
  GR value: 1.03 GR
[4]; 0.003162 µM
  GR value: 1.15 GR
[4]; 0.01 µM
  GR value: 1.09 GR
[4]; 0.03162 µM
  GR value: 0.907 GR
[4]; 0.1 µM
  GR value: -0.21 GR
[4]; 0.3162 µM
  GR value: -0.155 GR
[4]; 1 µM
  GR value: 0.0205 GR
[5]; 0.0001 µM
  GR value: 1.03 GR
[5]; 0.0003162 µM
  GR value: 0.932 GR
[5]; 0.001 µM
  GR value: 1.06 GR
[5]; 0.003162 µM
  GR value: 0.984 GR
[5]; 0.01 µM
  GR value: 0.928 GR
[5]; 0.03162 µM
  GR value: -0.0195 GR
[5]; 0.1 µM
  GR value: -0.224 GR
[5]; 0.3162 µM
  GR value: -0.229 GR
[5]; 1 µM
  GR value: -0.251 GR
[6]
  GR50, 72 h: 1.07 µM
[7]
  GR50, 72 h: 3.28 µM
[8]
  GR50, 72 h: 0.11 µM
[9]
  GR50, 72 h: 0.0552 µM
